# What was measured:
# SASP factors = test: qRT-PCR of SASP molecules in BLEO-induced senescent PSC27 cells at different PCC1 concentrations; assay type: cell-based, human
# Protocol: All data are normalized results compared to the CTRL group. *, P<0.05; **, P<0.01.
# Total RNA of cells in the growth phase or stasis phase was extracted with Trizol reagent, 1 mL Trizol was added to each T25 culture flask, the cell layer was scraped off with a cell scraper, transferred into a centrifuge tube, and mixed well until not viscous. […] After the RNA was quantified by a spectrophotometer, a small amount of total RNA was taken for 1% agarose electrophoresis to check the status and quality of the RNA. […]
# Sample was loaded according to the above standard, and the reaction conditions were: 95° C. pre-denaturation for 15 seconds, then 95° C. for 5 seconds, 60° C. for 31 seconds, 40 cycles; melting curve conditions were 95° C. for 15 seconds, 60° C. for 30 seconds, 95° C. for 15 seconds. […] The expression of (3-actin was used as an internal reference. After the reaction was completed, the amplification of each gene was checked by software analysis, the corresponding threshold cycle number was derived, and the relative expression of each gene was calculated using the 2-AACt method. The peak and waveform of the melting curve was analyzed to determine whether the obtained amplification product was a specific single target fragment. […]
# senescent PSC27 cells = test: Caspase 3/7 activity / drug-induced apoptosis in senescent cells; assay type: cell-based, human
# Protocol: PSC27 cells gradually entered the senescent stage after being treated with BLEO for 12 hours under culture conditions. 50 μM PCC1 was added to the medium of senescent cells starting from day 7, NucLight Rapid Red reagent was used to label the cells, and caspase 3/7 reagent (IncuCyte) was used for apoptosis detection. Caspase 3/7 activity was detected every 4 hours (n=3).
# Statistical differences are obtained by two-way ANOVA (Turkey' test).
# PSC27 cells were plated in a 96-well dish, and the cells were induced to senescence under the treatment of 50 μg/mL BLEO. PCC1 and ABT263 were added at concentrations of 50 μM and 1.0 μM, respectively. Cell culture medium was supplemented with Incucyte Nuclight fast Red Reagent (Essen Bioscience) and Incucyte C-3/7 Apoptosis Reagent (Essen Bioscience). Representative field of view was selected to take pictures.
# PSC27 cells = test: Flow cytometry of apoptosis of PSC27; assay type: cell-based, human
# Source text: Q2, distribution area of early apoptotic cells; Q3, distribution area of late apoptotic cells.
# [1] = test system: PC3/PSC27 xenograft tumors; test: Disease-free survival of tumor-bearing NOD/SCID mice; assay type: in vivo; settings: PCC1 alone
# Source text: When the tumor volume in the vehicle, MIT, PCC1 and MIT/PCC1 groups exceeds 2000 mm^3, it is considered that severe disease has occurred, and the mice need to be killed in time and the tumor bearing status should be detected. ^, P>0.05; **, P<0.01.
# We next compared the survival of animals in different drug-treated groups, primarily in a time-prolonged manner to assess the consequences of tumor progression. In this preclinical cohort, animals were monitored for prostate tumor growth, and severe disease was judged to have occurred once the […] tumor burden in mice was prominent (size ≥2000 mm^3), which was a method used for assessing progression of tumors and other diseases in certain conditions.
structure (smiles),measurement,setting,value
"Oc1cc(O)c2c(c1)O[C@H](c1ccc(O)c(O)c1)[C@H](O)[C@H]2c1c(O)cc(O)c2c1O[C@H](c1ccc(O)c(O)c1)[C@H](O)[C@H]2c1c(O)cc(O)c2c1O[C@H](c1ccc(O)c(O)c1)[C@H](O)C2 [PCC1, procyanidin C1]",SASP inhibition at lower or higher concentrations,SASP factors; compared with 10 μM,less effective
same,working concentration inhibiting SASP development with the greatest efficiency,"SASP factors; concentration gradient, senescent PSC27",10 µM
same,time after addition from which caspase-3/7 activity differs statistically between senescent and control group,senescent PSC27 cells; 50 μM PCC1,16 h
same,effect on proliferating cells (apoptosis),senescent PSC27 cells; proliferating PSC27,basically not targeted or affected
same,change of proliferating cells,PSC27 cells,not obvious
same,proportion of apoptosis in senescent PSC27 cells,PSC27 cells,significantly increased
same,viability of senescent PSC27 cells,PSC27 cells,significantly reduced
same,survival benefit of single agent,[1],only a marginal extension of survival
